Where two headings read alike, the source gives them in different places.
Molecular target: T1, human α7 nicotinic acetylcholine receptor (HEK cell line stably expressing human RIC-3 and human α7) (Homo sapiens, UniProt P36544)
T1 construct: host or cells: HEK cell line (PrecisION hnAChR α7/RIC-3)
Assay: Automated patch-clamp electrophysiology functional assay (Assay A), IonFlux HT, whole-cell population patch
Type: cell-based
Procedure: The α7 nAChR positive allosteric modulator (PAM) activity of the present compounds may be tested using assays known in the art. […] The assay was performed using the IonFlux HT in a whole-cell, population patch configuration. See Golden et al. Assay Drug Dev. Technol. […] The compounds were assessed for their ability to modulate the function of the human 7 nAChR stably expressed in a HEK cell line both in the presence, and in the absence of the natural 7 agonist acetylcholine. By performing a series of such measurements at different concentrations, the effective concentration of the 7 nAChR PAMs (EC50) was determined. See Spencer et al. Assay Drug Dev. Technol.
Direct activation of α7 (agonism), and potentiation of acetylcholine-evoked 7 currents was determined as follows:
Automated patch-clamp electrophysiology was performed using the IonFlux HT (Fluxion Biosciences Inc., San Francisco, Calif.) in the whole-cell, population patch configuration. Test compounds were assessed for their ability to modulate the function of the α7 nicotinic acetylcholine receptor both in the presence, and in the absence of the natural α7 agonist acetylcholine. […] Immediately prior to assay, cells were detached by first aspirating growth media, rinsing with Dulbecco's phosphate buffered saline, and then adding 10 mL of Accutase (Innovative Cell Technologies, San Diego, Calif.) to the flask and then incubating at 37° C. for 5 minutes. Detached cells were then recovered by the addition of 40 mL of CHO-serum-free media supplemented with 25 mM HEPES, and rocked gently in a 50 mL conical tube for 20 minutes prior to patch-clamp assay. After recovery, cells were pelleted by centrifugation at 1,000 RPM for 1 minute in a compact bench top centrifuge; recovery media was aspirated and cells were resuspended in external recording solution (150 mM NaCl, 5 mM KCl, 2 mM CaCl2), 1 mM MgCl2, 10 mM HEPES, 12 mM dextrose) to a density of 5.0×10^6 cells/mL. The cell suspension was added to the cell inlet wells on an IonFlux HT population patch plate which had previously been rinsed and primed with deionized H2O. Test compounds were serially diluted in DMSO and then resuspended to the final test concentration in external recording solution, with, or without 40 μM acetylcholine added to the external recording solution; test compounds were then transferred to the IonFlux HT population patch plate. Internal recording solution (110 mM TrisPO4, 28 mM TrisBase, 0.1 mM CaCl2, 2 mM MgCl2, 11 mM EGTA, 4 mM MgATP) was added to the internal recording solution inlet wells on the IonFlux HT patch plate previously loaded with cells and test compounds, and the plate loaded into the IonFlux HT instrument. A protocol was executed on the IonFlux HT to trap the cells, break into the cells, and establish the whole-cell recording configuration; cells were voltage-clamped at a holding potential of −60 mV for the duration of the experiment, all experiments were conducted at room temperature, and the IonFlux HT injection pressure was 8 psi for solution applications. Upon establishing the whole-cell configuration, external recording solution was perfused into the recording chambers for 120 seconds and then 40 μM acetylcholine was applied for 1 second and immediately washed off with external recording solution for 60 seconds. The 40 μM acetylcholine-evoked α7 current served as the current response to which subsequent test compound effects, in the presence, or in the absence of 40 μM acetylcholine would be quantified relative to. Next, test compounds were evaluated at multiple concentrations for their ability to induce, or modulate 7 current responses; three concentrations of test compound were evaluated in ascending dose fashion per recording.

[1] = HEK cells expressing human α7/RIC-3, test compound with or without 40 μM acetylcholine, holding potential −60 mV, room temperature, read-out: α7 nAChR Potency
[2] = automated patch-clamp electrophysiology functional assay (Assay A), read-out: α7 nAChR EC50

T1 sequence (P36544 23-502): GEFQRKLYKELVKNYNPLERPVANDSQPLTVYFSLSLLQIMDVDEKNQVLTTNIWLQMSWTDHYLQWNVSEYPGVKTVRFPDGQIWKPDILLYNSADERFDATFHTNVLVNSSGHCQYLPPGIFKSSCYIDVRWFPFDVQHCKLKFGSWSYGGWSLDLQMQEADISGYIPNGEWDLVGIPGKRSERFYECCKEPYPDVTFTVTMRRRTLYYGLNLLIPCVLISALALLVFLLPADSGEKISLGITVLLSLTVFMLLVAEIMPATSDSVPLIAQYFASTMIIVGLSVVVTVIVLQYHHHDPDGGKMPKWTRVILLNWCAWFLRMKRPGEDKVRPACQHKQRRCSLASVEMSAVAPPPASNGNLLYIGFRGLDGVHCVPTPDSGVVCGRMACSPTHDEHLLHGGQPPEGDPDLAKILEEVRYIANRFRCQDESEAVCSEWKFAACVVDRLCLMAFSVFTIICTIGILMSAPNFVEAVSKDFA

| EC50 [1] | EC50 [2] | SMILES |
| --- | --- | --- |
| 0.5 to 5 µM | 0.91 µM | Cc1ccc(C)c(-c2noc([C@@H]3C(F)(F)C34CCN(S(C)(=O)=O)CC4)n2)c1 (stereo in doubt) [Example 32, 2-[3-(2,5-Dimethylphenyl)-1,2,4-oxadiazol-5-yl]-1,1-difluoro-6-(methylsulfonyl)-6-azaspiro[2.5]octane] |
| 0.5 to 5 µM | 0.89 µM | NS(=O)(=O)N1CCC2(CC1)[C@H](c1ccn(-c3ccc(F)cc3C(F)(F)F)n1)C2(F)F (stereo in doubt) [Example 36, 1,1-Difluoro-2-{1-[4-fluoro-2-(trifluoromethyl)phenyl]-1H-pyrazol-3-yl}-6-azaspiro[2.5]octane-6-sulfonamide] |
| 0.5 to 5 µM | 1.2 µM | NS(=O)(=O)N1CCC2(CC1)[C@H](c1nsc(-c3ccc(F)cc3C(F)(F)F)n1)C2(F)F (stereo in doubt) [Example 37, 1,1-Difluoro-2-{5-[4-fluoro-2-(trifluoromethyl)phenyl]-1,2,4-thiadiazol-3-yl}-6-azaspiro[2.5]octane-6-sulfonamide] |
| < 0.1 µM | 0.098 µM | Cc1ccc(C(F)(F)F)cc1-c1nc([C@@H]2CC23CCN(S(N)(=O)=O)CC3)no1 [Example 1, (1R)-1-{5-[2-Methyl-5-(trifluoromethyl)phenyl]-1,2,4-oxadiazol-3-yl}-6-azaspiro[2.5]octane-6-sulfonamide] |
| < 0.1 µM | 0.082 µM | Cc1ccc(C)c(-c2nc([C@@H]3CC34CCN(S(N)(=O)=O)CC4)no2)c1 [Example 2, (1R)-1-[5-(2,5-Dimethylphenyl)-1,2,4-oxadiazol-3-yl]-6-azaspiro[2.5]octane-6-sulfonamide] |
| 0.5 to 5 µM | 1.3 µM | NS(=O)(=O)N1CCC2(CC2c2nc(-c3cccc(OCC(F)(F)F)c3)no2)C(F)(F)C1 (stereo not shown) [Example 3, 4,4-Difluoro-1-{3-[3-(2,2,2-trifluoroethoxy)phenyl]-1,2,4-oxadiazol-5-yl}-6-azaspiro[2.5]octane-6-sulfonamide] |
| 0.1 to 0.5 µM | 0.35 µM | NS(=O)(=O)N1CCC2(CC2c2nc(-c3cccc(OC(F)F)c3)no2)C(F)C1 (stereo not shown) [Example 4, 1-{3-[3-(Difluoromethoxy)phenyl]-1,2,4-oxadiazol-5-yl}-4-fluoro-6-azaspiro[2.5]octane-6-sulfonamide] |
| 0.5 to 5 µM | 1.2 µM | NS(=O)(=O)N1CCC2(CC1)C[C@H]2c1nc(-c2ccc(F)cc2C(F)(F)F)no1 [Example 5, (1R)-1-{3-[4-Fluoro-2-(trifluoromethyl)phenyl]-1,2,4-oxadiazol-5-yl}-6-azaspiro[2.5]octane-6-sulfonamide] |
| 0.1 to 0.5 µM | 0.28 µM | CC1CN(S(N)(=O)=O)CCC12CC2c1nc(-c2ccc(F)cc2C(F)(F)F)no1 (stereo not shown) [Example 6, 1-{3-[4-Fluoro-2-(trifluoromethyl)phenyl]-1,2,4-oxadiazol-5-yl}-4-methyl-6-azaspiro[2.5]octane-6-sulfonamide] |
| 0.5 to 5 µM | 1.1 µM | NS(=O)(=O)N1CCC2(CC1)C[C@H]2c1csc(-c2cccc(OC(F)(F)F)c2)n1 [Example 7, (1R)-1-{2-[3-(Trifluoromethoxy)phenyl]-1,3-thiazol-4-yl}-6-azaspiro[2.5]octane-6-sulfonamide] |
| 0.1 to 0.5 µM | 0.23 µM | Cc1cnn(CC(F)(F)F)c1-c1nc([C@@H]2CC23CCN(S(N)(=O)=O)CC3)no1 [Example 8, (1R)-1-{5-[4-Methyl-1-(2,2,2-trifluoroethyl)-1H-pyrazol-5-yl]-1,2,4-oxadiazol-3-yl}-6-azaspiro[2.5]octane-6-sulfonamide] |
| < 0.1 µM | 0.075 µM | Cc1cnn(C)c1-c1nc([C@@H]2C(F)(F)C23CCN(S(N)(=O)=O)CC3)no1 [Example 9, (2R)-2-[5-(1,4-Dimethyl-1H-pyrazol-5-yl)-1,2,4-oxadiazol-3-yl]-1,1-difluoro-6-azaspiro[2.5]octane-6-sulfonamide] |
| 0.1 to 0.5 µM | 0.22 µM | NS(=O)(=O)N1CCC2(CC1)[C@H](c1noc(-c3ccnc(OC(F)F)c3)n1)C2(F)F [Example 10, (2R)-2-{5-[2-(Difluoromethoxy)pyridin-4-yl]-1,2,4-oxadiazol-3-yl}-1,1-difluoro-6-azaspiro[2.5]octane-6-sulfonamide] |
| < 0.1 µM | 0.058 µM | NS(=O)(=O)N1CCC2(CC1)[C@H](c1nc(-c3conc3C3CC3)no1)C2(F)F [Example 11, (2R)-2-[3-(3-Cyclopropylisoxazol-4-yl)-1,2,4-oxadiazol-5-yl]-1,1-difluoro-6-azaspiro[2.5]octane-6-sulfonamide] |
| 0.1 to 0.5 µM | 0.22 µM | NS(=O)(=O)N1CCC2(CC1)[C@H](c1nc(-c3ccnn3CC(F)(F)F)no1)C2(F)F [Example 12, (2R)-1,1-Difluoro-2-{3-[1-(2,2,2-trifluoroethyl)-1H-pyrazol-5-yl]-1,2,4-oxadiazol-5-yl}-6-azaspiro[2.5]octane-6-sulfonamide] |
| < 0.1 µM | 0.073 µM | Cc1cnc(OC(F)F)cc1-c1nc([C@@H]2C(F)(F)C23CCN(S(N)(=O)=O)CC3)no1 [Example 13, (2R)-2-{5-[2-(Difluoromethoxy)-5-methylpyridin-4-yl]-1,2,4-oxadiazol-3-yl}-1,1-difluoro-6-azaspiro[2.5]octane-6-sulfonamide] |
| < 0.1 µM | 0.049 µM | Cn1ncc(C(F)(F)F)c1-c1nc([C@@H]2C(F)(F)C23CCN(S(N)(=O)=O)CC3)no1 [Example 14, (2R)-1,1-Difluoro-2-{5-[1-methyl-4-(trifluoromethyl)-1H-pyrazol-5-yl]-1,2,4-oxadiazol-3-yl}-6-azaspiro[2.5]octane-6-sulfonamide] |
| 0.1 to 0.5 µM | 0.33 µM | NS(=O)(=O)N1CCC2(CC1)C[C@H]2c1cnn(-c2cccc(OC(F)(F)F)c2)c1 [Example 15, (1R)-1-{1-[3-(Trifluoromethoxy)phenyl]-1H-pyrazol-4-yl}-6-azaspiro[2.5]octane-6-sulfonamide] |
| 0.1 to 0.5 µM | 0.45 µM | NS(=O)(=O)N1CCC2(CC1)[C@H](c1nnc(-c3ccnn3C3CC3)o1)C2(F)F [Example 16, (2R)-2-[5-(1-Cyclopropyl-1H-pyrazol-5-yl)-1,3,4-oxadiazol-2-yl]-1,1-difluoro-6-azaspiro[2.5]octane-6-sulfonamide] |
| 0.5 to 5 µM | 0.55 µM | NS(=O)(=O)N1CCC2(CC1)[C@H](c1nnc(-c3ccnn3C3CC3)s1)C2(F)F [Example 17, (2S)-2-[5-(1-Cyclopropyl-1H-pyrazol-5-yl)-1,3,4-thiadiazol-2-yl]-1,1-difluoro-6-azaspiro[2.5]octane-6-sulfonamide] |
| 0.5 to 5 µM | 0.8 µM | NS(=O)(=O)N1CCC2(CC1)[C@H](c1noc(-c3cnn4c3CSCC4)n1)C2(F)F [Example 18, (2R)-2-[5-(6,7-Dihydro-4H-pyrazolo[5,1-c][1,4]thiazin-3-yl)-1,2,4-oxadiazol-3-yl]-1,1-difluoro-6-azaspiro[2.5]octane-6-sulfonamide] |
| 0.1 to 0.5 µM | 0.24 µM | Cn1cc(-c2nc([C@@H]3C(F)(F)C34CCN(S(N)(=O)=O)CC4)no2)c(C(F)(F)F)n1 [Example 19, (2R)-1,1-Difluoro-2-{5-[1-methyl-3-(trifluoromethyl)-1H-pyrazol-4-yl]-1,2,4-oxadiazol-3-yl}-6-azaspiro[2.5]octane-6-sulfonamide] |
| < 0.1 µM | 0.098 µM | Cn1nc2c(c1-c1nc([C@@H]3C(F)(F)C34CCN(S(N)(=O)=O)CC4)no1)CCC2 [Example 20, (2R)-1,1-Difluoro-2-[5-(2-methyl-2,4,5,6-tetrahydrocyclopenta[c]pyrazol-3-yl)-1,2,4-oxadiazol-3-yl]-6-azaspiro[2.5]octane-6-sulfonamide] |
